{"source": "paper PMC8625360", "about": "(Cells, 2021)", "key": {"HepG2 ATP7B^−/− cells [1]": {"test_system": "HepG2 ATP7B^−/− cells", "assay": "Autophagosome-lysosome fusion, tandem sensor RFP-GFP-LC3B, HepG2 ATP7B-/-", "assay_type": "cell-based, human", "details": "24 h, 800 µM, 30–50 cells per condition", "method": "(§1) For the detection of the effect of copper on autophagosome-lysosome fusion, 50,000 cells of each HepG2 WT and HepG2 ATP7B^−/− were grown on laminin-coated coverslips for 24 h, transduced with BacMam-GFP-RFP-LC3B overnight according to the manufacturer’s recommendations. The cells were then treated with CuSO4 at a concentration range from 100 µM to 800 µM for 24 h, fixed with 4% paraformaldehyde for 15 min and finally stained with 250 ng/mL DAPI (Thermo Fisher scientific, Molecular Probes, D1306) for 5 min. The coverslips were fixed on a glass slide using Mowiol 4–88 (Sigma Aldrich, 81381). The fluorescence cell imaging was acquired using a confocal Zeiss LSM 780 microscope with a 63 × 1.40 Oil DIC M27. […] Red and yellow puncta count per cell was done using the particle analysis in image J. For protein ATP7B trafficking analysis, 50,000 cells of HepG2 WT and HepG2 ATP7B^−/− were cultured in a 500 µL cell culture medium on a laminin-coated coverslip for 24 h, then transfected with EGFP-ATP7B. After 6 h post transfection, cells were transduced with BacMam-RFP-Golgi or the BacMam-RFP-Lysosome overnight, then treated with various concentrations of CuSO4 or 200 µM of bathocuproine disulfonate (BCS) for 24 h or EBSS for 2 h, respectively. […] Pearson’s correlation coefficient was analyzed per cell using the colocalization threshold of ImageJ Fiji."}, "HepG2 WT cells [2]": {"test_system": "HepG2 WT cells", "assay": "Colocalization of EGFP-ATP7B-WT with TGN, lysosome (LAMP1) and LC3B markers", "assay_type": "cell-based, human", "method": "For the detection of the effect of copper on autophagosome-lysosome fusion, 50,000 cells of each HepG2 WT and HepG2 ATP7B^−/− were grown on laminin-coated coverslips for 24 h, transduced with BacMam-GFP-RFP-LC3B overnight according to the manufacturer’s recommendations. The cells were then treated with CuSO4 at a concentration range from 100 µM to 800 µM for 24 h, fixed with 4% paraformaldehyde for 15 min and finally stained with 250 ng/mL DAPI (Thermo Fisher scientific, Molecular Probes, D1306) for 5 min. The coverslips were fixed on a glass slide using Mowiol 4–88 (Sigma Aldrich, 81381). The fluorescence cell imaging was acquired using a confocal Zeiss LSM 780 microscope with a 63 × 1.40 Oil DIC M27. […] Red and yellow puncta count per cell was done using the particle analysis in image J. For protein ATP7B trafficking analysis, 50,000 cells of HepG2 WT and HepG2 ATP7B^−/− were cultured in a 500 µL cell culture medium on a laminin-coated coverslip for 24 h, then transfected with EGFP-ATP7B. After 6 h post transfection, cells were transduced with BacMam-RFP-Golgi or the BacMam-RFP-Lysosome overnight, then treated with various concentrations of CuSO4 or 200 µM of bathocuproine disulfonate (BCS) for 24 h or EBSS for 2 h, respectively. To detect LC3B or endogenous ATP7B, the fixed cells were incubated with anti-LC3B or anti-ATP7B antibodies at 4 °C overnight followed by secondary antibody incubation, Alexa Fluor 568 goat anti-rabbit, at temperature for 1 h in the dark. Pearson’s correlation coefficient was analyzed per cell using the colocalization threshold of ImageJ Fiji."}, "HepG2 ATP7B^−/− cells [3]": {"test_system": "HepG2 ATP7B^−/− cells", "assay": "Autophagy detection by western blot (LC3B-II/LC3B-I), HepG2 ATP7B-/-", "assay_type": "cell-based, human", "details": "24 h, even at 600 µM and 800 µM", "method": "(§2) 5 × 10^5 HepG2 cells were cultured in 2 mL of DMEM medium supplemented with 10% FBS and 1% P/S. Once the cell reached 80% confluence, they were treated with varied concentration of CuSO4 (Sigma Aldrich, 209198) from 200 µM to 800 µM for 24 h. For the starvation induction, cells were additionally treated with Earle’s Balanced Salt Solution (EBSS) media (Sigma Aldrich, E3024) for 2 h with or without 50 µM chloroquine (CLQ) prior to lysis with RIPA buffer containing inhibitor cocktails (Roche Life Science, 11697498001). Protein concentration was determined to be sure that the protein of each sample was equally loaded on the Criterion TGX precast gel for western blot detection. ATP7B, GAPDH and LC3B-II/LC3B-I was determined using the above-mentioned antibodies. Western Blot analysis was carried out as described above."}, "HepG2 WT cells [4]": {"test_system": "HepG2 WT cells", "assay": "Autophagosome-lysosome fusion, tandem sensor RFP-GFP-LC3B, HepG2 WT", "assay_type": "cell-based, human", "details": "24 h, high CuSO4 concentration, significance reached at 800 µM, 30–50 cells per condition", "method": "as §1"}, "HepG2 WT cells [5]": {"test_system": "HepG2 WT cells", "assay": "Autophagy detection by western blot (LC3B-II/LC3B-I), HepG2 WT", "assay_type": "cell-based, human", "details": "24 h treatment, 100–800 µM, effect at 600 µM and 800 µM", "method": "as §2"}, "LC3B": {"target": "T1, LC3B (Homo sapiens, UniProt Q9GZQ8)", "T1 construct": "His6 (N, cleaved yes); MBP (N, cleaved yes); made in house; host or cells: E. coli BL21-codonplus (DE3)-RIL", "assay": "Pull-down with resin-bound GST-LC3B as bait from transfected HEK293H cell lysate", "assay_type": "binding", "details": "500 µg HEK293H lysate, western blot, repeated two times", "method": "GST tagged LC3B was used as a bait to trap the full-length ATP7B from a lysate obtained from ATP7B transfected human embryonic kidney 293 H cell line (HEK293H) cells. To this end, 100,000 cells of HEK293H were cultured in 1 mL of DMEM media (Thermo Fisher Scientific, 31966-047) plus 10% fetal bovine serum (FBS) (Fisher Scientific, 10309433) and 1% Penicillin-Streptomycin (P/S) (Thermo Fisher Scientific, 15140122). Once the cells reached 80% confluence, cells were transfected with pIRES-GFP carrying full-length ATP7B (NM_000053.4) or its W1452A/L1455A mutant using Lipofectamine LTX and plus reagent (Invitrogen, 15338100). […] Blots were imaged on an Infrared fluorescence imaging system using Li-Cor 9120 Odyssey (LI-COR Biosciences, Bad Homburg, Germany). Protein band intensity quantification was done using ImageJ (National Institutes of Health, Bethesda, MD, USA)."}}, "data": [{"molecule": "O=S(=O)([O-])[O-].[Cu+2]", "note": "[CuSO4]", "values": [{"measurement": "red/yellow puncta ratio (autophagosome-lysosome fusion)", "setting": "HepG2 ATP7B^−/− cells [1]", "result": "significantly decreased"}, {"measurement": "TGN fraction of EGFP-ATP7B", "setting": "HepG2 WT cells [2]; 400 µM CuSO4, 24 h", "result": "no TGN fraction was detectable"}, {"measurement": "fold increase of EGFP-ATP7B colocalization with lysosomal structures vs basal medium condition", "setting": "HepG2 WT cells [2]; 400 µM CuSO4, 24 h", "result": "about 1.2 fold"}, {"measurement": "colocalization of EGFP-ATP7B with lysosomal structures (LAMP1)", "setting": "HepG2 WT cells [2]; 400 µM CuSO4, 24 h, percentage from mean Pearson's correlation coefficient, 30 cells", "result": 83.6, "unit": "%"}, {"measurement": "fold elevation of EGFP-ATP7B colocalization with LC3B vs basal copper concentration", "setting": "HepG2 WT cells [2]; high CuSO4 concentration (400 µM), 24 h", "result": 4.8, "unit": "fold"}, {"measurement": "colocalization of EGFP-ATP7B with LC3B", "setting": "HepG2 WT cells [2]; high CuSO4 concentration (400 µM), 24 h, from mean Pearson's correlation coefficient, 30 cells", "result": 11.6, "unit": "%"}, {"measurement": "LC3B-II/LC3B-I ratio (western blot)", "setting": "HepG2 ATP7B^−/− cells [3]", "result": "did not significantly alter"}, {"measurement": "red/yellow puncta ratio (autophagosome-lysosome fusion)", "setting": "HepG2 WT cells [4]", "result": "increased red/yellow puncta ratio"}, {"measurement": "LC3B-II level (western blot)", "setting": "HepG2 WT cells [5]", "result": "significant increase of LC3B-II"}]}, {"molecule": "ATP7B^W1452A/L1455A: full-length ATP7B variant W1452A/L1455A with mutated LIR3 motif (protein) MPEQERQITAREGASRKILSKLSLPTRAWEPAMKKSFAFDNVGYEGGLDGLGPSSQVATSTVRILGMTCQSCVKSIEDRISNLKGIISMKVSLEQGSATVKYVPSVVCLQQVCHQIGDMGFEASIAEGKAASWPSRSLPAQEAVVKLRVEGMTCQSCVSSIEGKVRKLQGVVRVKVSLSNQEAVITYQPYLIQPEDLRDHVNDMGFEAAIKSKVAPLSLGPIDIERLQSTNPKRPLSSANQNFNNSETLGHQGSHVVTLQLRIDGMHCKSCVLNIEENIGQLLGVQSIQVSLENKTAQVKYDPSCTSPVALQRAIEALPPGNFKVSLPDGAEGSGTDHRSSSSHSPGSPPRNQVQGTCSTTLIAIAGMTCASCVHSIEGMISQLEGVQQISVSLAEGTATVLYNPSVISPEELRAAIEDMGFEASVVSESCSTNPLGNHSAGNSMVQTTDGTPTSVQEVAPHTGRLPANHAPDILAKSPQSTRAVAPQKCFLQIKGMTCASCVSNIERNLQKEAGVLSVLVALMAGKAEIKYDPEVIQPLEIAQFIQDLGFEAAVMEDYAGSDGNIELTITGMTCASCVHNIESKLTRTNGITYASVALATSKALVKFDPEIIGPRDIIKIIEEIGFHASLAQRNPNAHHLDHKMEIKQWKKSFLCSLVFGIPVMALMIYMLIPSNEPHQSMVLDHNIIPGLSILNLIFFILCTFVQLLGGWYFYVQAYKSLRHRSANMDVLIVLATSIAYVYSLVILVVAVAEKAERSPVTFFDTPPMLFVFIALGRWLEHLAKSKTSEALAKLMSLQATEATVVTLGEDNLIIREEQVPMELVQRGDIVKVVPGGKFPVDGKVLEGNTMADESLITGEAMPVTKKPGSTVIAGSINAHGSVLIKATHVGNDTTLAQIVKLVEEAQMSKAPIQQLADRFSGYFVPFIIIMSTLTLVVWIVIGFIDFGVVQRYFPNPNKHISQTEVIIRFAFQTSITVLCIACPCSLGLATPTAVMVGTGVAAQNGILIKGGKPLEMAHKIKTVMFDKTGTITHGVPRVMRVLLLGDVATLPLRKVLAVVGTAEASSEHPLGVAVTKYCKEELGTETLGYCTDFQAVPGCGIGCKVSNVEGILAHSERPLSAPASHLNEAGSLPAEKDAVPQTFSVLIGNREWLRRNGLTISSDVSDAMTDHEMKGQTAILVAIDGVLCGMIAIADAVKQEAALAVHTLQSMGVDVVLITGDNRKTARAIATQVGINKVFAEVLPSHKVAKVQELQNKGKKVAMVGDGVNDSPALAQADMGVAIGTGTDVAIEAADVVLIRNDLLDVVASIHLSKRTVRRIRINLVLALIYNLVGIPIAAGVFMPIGIVLQPWMGSAAMAASSVSVVLSSLQLKCYKKPDLERYEAQAHGHMKPLTASQVSVHIGMDDRWRDSPRATPWDQVSYVSQVSLSSLTSDKPSRHSAAADDDGDKASLALNGRDEEQYI", "values": [{"measurement": "ATP7B in elution fraction of GST-LC3B pull-down", "setting": "LC3B", "result": "largely reduced"}]}]}
